Reference: patent US9107954B2, “Bivalent ligands for the treatment of neurological disorders” (Virginia Commonwealth University, priority 2012, dated 2015)

Experiments:
[1] = molecular target: CCR5 (Macaca mulatta (Rhesus macaque), UniProt P61813); experiment: CCR5 competitive radioligand binding, [125I]MIP-1α, Chem-1 cell membrane preparations; settings: mean of three experiments, read-out: Radioligand binding Ki ± SEM
Method: Afterwards, the pharmacological profile of bivalent ligand 1 at the chemokine receptor CCR5 was characterized similarly. The competitive radioligand binding assay was conducted in CCR5 rhesus macaque membrane preparations from Chem-1 cells.

[2] = tested on: CCR5 and MOR; experiment: Flow cytometry of CCR5 and MOR co-localization in HIV-1 infected primary human astrocytes; type: cell-based
Method: (§1) MOR and CCR5 immunoreactivity were detected by direct immunofluorescence in astroglial cells by flow cytometric analysis. Cells were washed in phosphate-buffered saline (PBS)-0.1% bovine serum albumin (BSA) buffer and incubated with primary MOR antibody followed by a secondary antibody conjugated to allophycocyanin (APC) (Biolegend, Inc; catalog #408001) and Alexa Fluor® 488 conjugated anti-mouse CD195 (CCR5) antibody (Biolegend, Inc; catalog #107008) in permeabilization buffer (PBS-0.1% BSA-0.1% Triton X-100) at a 1:500 dilution. Fluorescence was measured from 10,000 gated cells per treatment in each experiment using a FACSCanto II flow cytometer (BD Biosciences, San Jose, Calif.). Auto-fluorescence was compensated by setting the detector voltage to the minimum level that discriminates between auto-fluorescence and specific immunofluorescence in both negative and positive controls. Isotype control antibodies were used to define settings in histogram plot analyses.
(§2) We quantitatively analyzed the effect of MVC and the bivalent compound on CCR5 and MOR expression levels in virally infected astrocytes by flow cytometry. […] Approximately 20,000 events were analyzed per treatment condition in each experiment and size discrimination was used as a crude method for viability determination.

[3] = tested on: human astrocytes; experiment: Cytotoxicity assay, AOPI live/dead labeling of human astrocytes; type: cell-based
Method: Cell viability was assessed by measurement of both live and dead cells using dual (green/red) fluorescence labeling with AOPI analyzed with Cellometer Vision CBA (Nexcelom Bioscience LLC).
To determine whether HIV-1±morphine exposure affected astrocyte viability in the presence or absence of MVC or the bivalent compound, a cell death assay was performed at 24 h after treatment.

[4] = molecular target: mu opioid receptor (Homo sapiens (Human), UniProt P35372); experiment: biochemical; settings: read-out: Emax, 35S-GTP[γS] binding
Method: (§3) MOR/CHO cell culture and membrane homogenate preparation followed literature report^52.
(§4) For competition binding assay (agonists or antagonists), Hill plots linear regression analysis and the Cheng-Prusoff equation were applied to determine the IC50 and Ki values. In [^35S]GTPγS binding assays, agonist concentration effect curves were fit by non-linear regression to obtain Emax and EC50 values; antagonist inhibition of agonist-stimulated [^35S]GTPγS binding was analyzed by Hill analysis and AD50 values were corrected to Ki values using the Cheng-Prusoff equation. All analyses were using Prism 4.0.

[5] = tested on: HIV-1 in microglia; experiment: HIV-1 entry in microglia (data not shown); type: cell-based; settings: at the concentrations used (100 nM)
[6] = tested on: fusion of CCR5-MOR CHO target cells (CD4) with HEK effector cells (HIV-1 gp140); type: cell-based
[7] = molecular target: mu opioid receptor (MOR) (Homo sapiens (Human), UniProt P35372); experiment: MOR competitive radioligand binding, [3H]naloxone, hMOR-expressed CHO cells; settings: Example 1, read-out: binding affinity to the mu opioid receptor, Ki
Method: as §3
Saturation binding was performed by incubating membranes for 90 minutes at 30° C. with 0.5-15 nM [^3H]naloxone in assay buffer in a 0.5 mL volume. […] The reaction was terminated by rapid filtration through Whatman GF/B glass fiber filters, followed by 3 washes with 3 mL ice-cold Tris buffer. Bound radioactivity will be determined by liquid scintillation spectrophotometry at 45% efficiency for [^3H].
as §4
Herein is reported the characterization of this novel molecular probe in for its binding affinity, Ca^2+ flux functional activity, and HIV-1 inhibition potency.

[8] = tested on: CCR5; experiment: Flow cytometry of CCR5 immunofluorescence in HIV-1 infected primary human astrocytes; type: cell-based; settings: maraviroc co-exposure; bivalent ligand ± morphine
Method: as §1, §2

Compound: Cc1nnc(C(C)C)n1C1CC2CCC(C1)N2CC[C@H](NC(=O)C1CCC(F)(F)CC1)c1ccc(NC(=O)COCC(=O)NCCCCCCCNC(=O)COCC(=O)N[C@@H]2CC[C@@]3(O)[C@H]4Cc5ccc(O)c6c5[C@@]3(CCN4CC3CC3)[C@H]2O6)cc1 (stereo partly shown) [bivalent ligand 1]
- Ki [1]: 239 ± 56 nM
- fold increase in astrocytes expressing both CCR5 and MOR compared to R5 HIV-1 alone [2]: 1.6 fold
- astrocyte viability ([3]; 100 nM, HIV-1 ± morphine, 24 h): did not significantly affect the survival
- toxicity in the astrocytes, cytotoxicity assays (not shown) ([3]; Example 3): neither maraviroc nor 1 had any toxicity
- Emax [4]: 11.7 ± 1.2%
- antiviral effect in microglia [5]: only detected in astrocytes and not in microglia
- effect on cell fusion ([6]; 1 at 3000 nM, 2 at 10000 nM, maraviroc at 100 nM): significantly lowered cell fusion
- amplification of cell fusion inhibition when morphine present ([6]; morphine 300 nM): 2 fold
- Ki [7]: 51.8 ± 7.9 nM
- fold decrease in CCR5 expression levels compared to R5 HIV-1 [8]: 1.8 fold
